In the NIST ThermoML archive (doi:10.1016/j.jct.2006.07.002):
Numbers after ± are expanded uncertainties.

How the values were obtained:
[1] = refractive index (Na D-line) (dimensionless); details: 293.15 K; 101.33 kPa; Liquid; Standard Abbe refractometry
[2] = 293.15 K; 101.33 kPa; Liquid
[3] = Boiling temperature at pressure P; details: Liquid, Distillation

SMILES | refractive index [1] | mass density [2] [kg/m3] | Boiling temperature at pressure P ([3]; 101.33 kPa) [°C] | Boiling temperature at pressure P ([3]; 1.733 kPa) [°C]
CCCC(=O)O [butanoic acid] | 1.3975 ± 0.0007 | 952.8 ± 0.58 | – | –
COC(=O)CCC(=O)OC [dimethyl 1,4-butanedioate] | 1.41969 ± 0.00078 | 1119.13 ± 2.3 | 196.1 ± 0.2 | –
COC(=O)CCCCC(=O)OC [dimethyl 1,6-hexanedioate] | 1.42825 ± 0.0007 | 1061.72 ± 0.67 | – | 115 ± 1
COC(=O)CCCC(=O)OC [dimethyl pentanedioate] | 1.42454 ± 0.0007 | 1087.67 ± 0.76 | 214.2 ± 0.2 | –
